ChEMBL document CHEMBL6127029, “Glutathione-dependent degradation of SMARCA2/4 for targeted lung cancer therapy with improved selectivity” (Eur J Med Chem, 2024)
Activity calls are given as the source filed them. No cut-off for these calls is given here.

Key:
[1] = biological target: T1, von Hippel-Lindau disease tumor suppressor/SWI/SNF-related matrix-associated actin-dependent regulator of chromatin subfamily A member 2 (Homo sapiens) (UniProt P51531+P40337); assay: PROTAC activity at VHL/SMARCA2 in human 786-0 cells harboring mutated VHL assessed as induction of SMARCA2 degradation at 0.1 to 5 uM incubated for 8 hrs by Western blotting analysis; format: cell-based; conditions: dose 0.1-5 µM
[2] = biological target: T1, von Hippel-Lindau disease tumor suppressor/SWI/SNF-related matrix-associated actin-dependent regulator of chromatin subfamily A member 2 (Homo sapiens); assay: PROTAC activity at VHL/SMARCA2 in human HuLEC-5a cells assessed as induction of SMARCA2 degradation at 1 uM by Western blotting analysis; format: cell-based; conditions: TDE = time-dependent effect
[3] = biological target: T1, von Hippel-Lindau disease tumor suppressor/SWI/SNF-related matrix-associated actin-dependent regulator of chromatin subfamily A member 2 (Homo sapiens); assay: PROTAC activity at VHL/SMARCA2 in human A549 cells assessed as induction of SMARCA2 degradation at 1 uM by Western blotting analysis; format: cell-based; conditions: TDE = time-dependent effect
[4] = biological target: T1, von Hippel-Lindau disease tumor suppressor/SWI/SNF-related matrix-associated actin-dependent regulator of chromatin subfamily A member 2 (Homo sapiens); assay: PROTAC activity at VHL/SMARCA2 in human A549 cells harboring shRNA mediated VHL knockdown assessed as induction of SMARCA2 degradation at 0.1 to 2 uM incubated for 8 hrs by Western blotting analysis; format: cell-based; conditions: dose 0.1-2 µM
[5] = tested on: A549; assay: Cytotoxicity against human A549 cells assessed as inhibition of cell growth incubated for 3 days by MTT assay; format: functional, cell-based; conditions: A549, 72 h
[6] = tested on: HuLEC-5a; assay: Inhibition of cell migration in human HuLEC-5a cells at 10 uM incubated for 36 hrs by scratch wound healing based fluorescent microscopic analysis; format: functional
[7] = Cytotoxicity against human HuLEC-5a cells assessed as inhibition of cell growth incubated for 3 days by MTT assay; format: toxicity, cell-based
[8] = biological target: T2, von Hippel-Lindau disease tumor suppressor/SWI/SNF-related matrix-associated actin-dependent regulator of chromatin subfamily A member 4 (Homo sapiens) (UniProt P51532+P40337); assay: PROTAC activity at VHL/SMARCA4 in human HEK-293T cells assessed as induction of SMARCA4 degradation at 1 uM by Western blotting analysis; format: cell-based; conditions: TDE = time-dependent effect
[9] = biological target: T1, von Hippel-Lindau disease tumor suppressor/SWI/SNF-related matrix-associated actin-dependent regulator of chromatin subfamily A member 2 (Homo sapiens); assay: PROTAC activity at VHL/SMARCA2 in human A549 cells assessed as induction of SMARCA2 degradation at 1 uM pretreated with MG132 followed by compound addition and measured after 8 hrs by Western blotting analysis; format: cell-based
[10] = biological target: T2, von Hippel-Lindau disease tumor suppressor/SWI/SNF-related matrix-associated actin-dependent regulator of chromatin subfamily A member 4 (Homo sapiens); assay: PROTAC activity at VHL/SMARCA4 in human HuLEC-5a cells assessed as induction of SMARCA4 degradation at 1 uM by Western blotting analysis; format: cell-based; conditions: TDE = time-dependent effect
[11] = biological target: T1, von Hippel-Lindau disease tumor suppressor/SWI/SNF-related matrix-associated actin-dependent regulator of chromatin subfamily A member 2 (Homo sapiens); assay: PROTAC activity at VHL/SMARCA2 in human A549 cells assessed as induction of SMARCA2 degradation at 1 uM pretreated with MLN4924 followed by compound addition and measured after 8 hrs by Western blotting analysis; format: cell-based
[12] = biological target: T2, von Hippel-Lindau disease tumor suppressor/SWI/SNF-related matrix-associated actin-dependent regulator of chromatin subfamily A member 4 (Homo sapiens); assay: PROTAC activity at VHL/SMARCA4 in human HEK-293T cells assessed as induction of SMARCA4 degradation at 1 uM incubated for 24 hrs by Western blotting analysis relative to control; format: cell-based
[13] = biological target: T1, von Hippel-Lindau disease tumor suppressor/SWI/SNF-related matrix-associated actin-dependent regulator of chromatin subfamily A member 2 (Homo sapiens); assay: PROTAC activity at VHL/SMARCA2 in human NCI-H1299 cells assessed as induction of SMARCA2 degradation at 1 uM by Western blotting analysis; format: cell-based; conditions: TDE = time-dependent effect
[14] = biological target: T2, von Hippel-Lindau disease tumor suppressor/SWI/SNF-related matrix-associated actin-dependent regulator of chromatin subfamily A member 4 (Homo sapiens); assay: PROTAC activity at VHL/SMARCA4 in human 786-0 cells harboring mutated VHL assessed as induction of SMARCA4 degradation at 0.1 to 5 uM incubated for 8 hrs by Western blotting analysis; format: cell-based; conditions: dose 0.1-5 µM
[15] = biological target: T1, von Hippel-Lindau disease tumor suppressor/SWI/SNF-related matrix-associated actin-dependent regulator of chromatin subfamily A member 2 (Homo sapiens); assay: PROTAC activity at VHL/SMARCA2 in human HEK-293T cells assessed as induction of SMARCA2 degradation at 1 uM by Western blotting analysis; format: cell-based; conditions: TDE = time-dependent effect
[16] = biological target: T1, von Hippel-Lindau disease tumor suppressor/SWI/SNF-related matrix-associated actin-dependent regulator of chromatin subfamily A member 2 (Homo sapiens); assay: PROTAC activity at VHL/SMARCA2 in human A549 cells assessed as induction of SMARCA2 degradation at 1 uM incubated for 24 hrs by Western blotting analysis; format: cell-based
[17] = biological target: T1, von Hippel-Lindau disease tumor suppressor/SWI/SNF-related matrix-associated actin-dependent regulator of chromatin subfamily A member 2 (Homo sapiens); assay: PROTAC activity at VHL/SMARCA2 in human HEK-293T cells assessed as induction of SMARCA2 degradation at 1 uM incubated for 24 hrs by Western blotting analysis relative to control; format: cell-based
[18] = tested on: A549; assay: Inhibition of cell migration in human A549 cells at 10 uM incubated for 36 hrs by scratch wound healing based fluorescent microscopic analysis; format: functional
[19] = tested on: NCI-H1299; assay: Cytotoxicity against human NCI-H1299 cells assessed as inhibition of cell growth incubated for 3 days by MTT assay; format: functional, cell-based; conditions: NCI-H1299, 72 h
[20] = biological target: T1, von Hippel-Lindau disease tumor suppressor/SWI/SNF-related matrix-associated actin-dependent regulator of chromatin subfamily A member 2 (Homo sapiens); assay: PROTAC activity at VHL/SMARCA2 in human NCI-H1299 cells harboring shRNA mediated VHL knockdown assessed as induction of SMARCA2 degradation at 0.1 to 2 uM incubated for 8 hrs by Western blotting analysis; format: cell-based; conditions: dose 0.1-2 µM

T2 sequence (P40337 whole entry, looked up): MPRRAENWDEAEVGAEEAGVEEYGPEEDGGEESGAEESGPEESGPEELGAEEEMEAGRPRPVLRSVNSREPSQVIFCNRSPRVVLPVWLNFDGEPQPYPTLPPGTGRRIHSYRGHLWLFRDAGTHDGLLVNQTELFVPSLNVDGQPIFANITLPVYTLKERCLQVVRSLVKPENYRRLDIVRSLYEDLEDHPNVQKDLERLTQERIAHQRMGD
T2 sequence (P51532 whole entry, looked up): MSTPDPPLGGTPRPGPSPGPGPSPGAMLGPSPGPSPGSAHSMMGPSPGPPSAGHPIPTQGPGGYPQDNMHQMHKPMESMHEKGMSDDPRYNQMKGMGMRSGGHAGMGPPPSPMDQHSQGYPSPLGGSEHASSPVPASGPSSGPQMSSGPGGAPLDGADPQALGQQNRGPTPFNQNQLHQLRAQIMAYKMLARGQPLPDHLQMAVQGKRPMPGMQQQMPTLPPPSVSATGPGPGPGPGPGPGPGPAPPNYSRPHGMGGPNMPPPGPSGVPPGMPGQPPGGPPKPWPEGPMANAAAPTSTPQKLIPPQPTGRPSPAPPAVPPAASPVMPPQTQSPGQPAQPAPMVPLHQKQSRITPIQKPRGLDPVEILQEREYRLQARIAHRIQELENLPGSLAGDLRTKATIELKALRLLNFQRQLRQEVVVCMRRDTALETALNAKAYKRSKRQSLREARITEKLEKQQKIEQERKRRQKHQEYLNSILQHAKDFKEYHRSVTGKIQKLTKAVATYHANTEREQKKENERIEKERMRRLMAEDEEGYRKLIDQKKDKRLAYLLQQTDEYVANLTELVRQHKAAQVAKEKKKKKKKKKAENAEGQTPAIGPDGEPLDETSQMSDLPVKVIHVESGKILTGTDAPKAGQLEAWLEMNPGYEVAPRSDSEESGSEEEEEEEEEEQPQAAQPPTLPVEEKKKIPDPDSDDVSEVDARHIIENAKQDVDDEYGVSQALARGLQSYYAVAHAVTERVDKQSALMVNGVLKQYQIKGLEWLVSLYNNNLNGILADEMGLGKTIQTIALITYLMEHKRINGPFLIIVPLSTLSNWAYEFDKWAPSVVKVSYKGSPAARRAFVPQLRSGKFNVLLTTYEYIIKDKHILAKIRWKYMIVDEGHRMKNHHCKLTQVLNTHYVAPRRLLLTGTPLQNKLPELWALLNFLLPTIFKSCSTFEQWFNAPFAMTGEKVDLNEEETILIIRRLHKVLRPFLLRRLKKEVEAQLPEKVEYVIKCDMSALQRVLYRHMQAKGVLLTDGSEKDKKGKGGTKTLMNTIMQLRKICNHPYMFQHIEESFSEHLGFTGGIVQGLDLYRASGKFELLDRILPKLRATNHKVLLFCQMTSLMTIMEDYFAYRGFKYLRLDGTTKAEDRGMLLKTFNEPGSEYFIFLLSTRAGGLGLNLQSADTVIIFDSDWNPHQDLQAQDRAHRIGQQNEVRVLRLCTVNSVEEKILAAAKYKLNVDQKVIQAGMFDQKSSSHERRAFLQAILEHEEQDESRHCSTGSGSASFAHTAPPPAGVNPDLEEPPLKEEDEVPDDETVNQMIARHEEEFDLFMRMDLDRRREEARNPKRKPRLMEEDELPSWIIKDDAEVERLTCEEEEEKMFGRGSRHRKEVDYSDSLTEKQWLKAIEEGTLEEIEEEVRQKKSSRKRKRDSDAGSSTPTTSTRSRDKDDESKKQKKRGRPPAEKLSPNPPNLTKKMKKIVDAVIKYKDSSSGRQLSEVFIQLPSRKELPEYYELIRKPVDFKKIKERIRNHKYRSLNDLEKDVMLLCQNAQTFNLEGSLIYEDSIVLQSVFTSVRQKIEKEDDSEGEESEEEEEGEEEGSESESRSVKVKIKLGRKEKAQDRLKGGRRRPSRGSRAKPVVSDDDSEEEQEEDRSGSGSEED
T1 sequence (P40337 whole entry, looked up): as the sequence (P40337 whole entry, looked up) above
T1 sequence (P51531 whole entry, looked up): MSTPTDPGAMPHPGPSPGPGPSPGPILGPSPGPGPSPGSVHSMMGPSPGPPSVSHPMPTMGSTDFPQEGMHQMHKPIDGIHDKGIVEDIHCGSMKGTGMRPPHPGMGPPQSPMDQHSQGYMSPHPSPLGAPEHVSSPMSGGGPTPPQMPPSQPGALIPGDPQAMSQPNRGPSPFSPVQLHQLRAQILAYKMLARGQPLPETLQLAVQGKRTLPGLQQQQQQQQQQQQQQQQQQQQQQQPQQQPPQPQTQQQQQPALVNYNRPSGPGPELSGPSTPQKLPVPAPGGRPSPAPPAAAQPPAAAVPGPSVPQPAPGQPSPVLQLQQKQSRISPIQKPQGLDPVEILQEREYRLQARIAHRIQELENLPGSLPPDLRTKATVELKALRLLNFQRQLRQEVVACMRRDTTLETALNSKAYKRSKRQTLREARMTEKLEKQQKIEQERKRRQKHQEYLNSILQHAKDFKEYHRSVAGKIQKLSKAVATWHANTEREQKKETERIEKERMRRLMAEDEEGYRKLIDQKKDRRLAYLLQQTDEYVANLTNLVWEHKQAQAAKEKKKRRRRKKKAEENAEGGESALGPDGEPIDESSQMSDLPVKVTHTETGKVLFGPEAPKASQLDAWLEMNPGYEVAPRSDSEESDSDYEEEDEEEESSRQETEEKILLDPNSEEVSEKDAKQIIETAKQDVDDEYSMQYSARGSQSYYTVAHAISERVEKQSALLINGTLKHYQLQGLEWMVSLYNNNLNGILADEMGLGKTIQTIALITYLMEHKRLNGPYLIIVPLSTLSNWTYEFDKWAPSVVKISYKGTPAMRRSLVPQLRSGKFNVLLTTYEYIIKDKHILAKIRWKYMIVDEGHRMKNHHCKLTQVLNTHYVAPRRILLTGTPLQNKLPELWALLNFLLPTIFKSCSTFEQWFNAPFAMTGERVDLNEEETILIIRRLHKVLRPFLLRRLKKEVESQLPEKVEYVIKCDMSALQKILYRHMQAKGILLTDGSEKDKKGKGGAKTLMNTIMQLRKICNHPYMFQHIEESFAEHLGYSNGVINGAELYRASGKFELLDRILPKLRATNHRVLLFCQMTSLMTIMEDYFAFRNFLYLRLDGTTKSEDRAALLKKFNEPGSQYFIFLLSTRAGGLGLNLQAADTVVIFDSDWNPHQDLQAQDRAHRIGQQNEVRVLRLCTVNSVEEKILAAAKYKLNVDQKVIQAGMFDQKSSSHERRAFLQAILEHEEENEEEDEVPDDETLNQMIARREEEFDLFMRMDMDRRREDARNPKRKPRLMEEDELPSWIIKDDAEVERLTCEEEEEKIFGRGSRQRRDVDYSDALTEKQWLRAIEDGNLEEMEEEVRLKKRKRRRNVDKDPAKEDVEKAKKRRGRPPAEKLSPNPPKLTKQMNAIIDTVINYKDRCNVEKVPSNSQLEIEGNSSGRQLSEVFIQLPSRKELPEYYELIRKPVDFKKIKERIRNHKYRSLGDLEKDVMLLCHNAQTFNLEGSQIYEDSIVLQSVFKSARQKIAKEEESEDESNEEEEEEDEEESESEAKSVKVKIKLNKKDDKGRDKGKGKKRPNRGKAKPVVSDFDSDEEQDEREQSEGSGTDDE

Q: Which Activity [1] does the source give for `Cc1ncsc1-c1ccc(CNC(=O)[C@@H]2C[C@@H](O)CN2C(=O)[C@@H](NC(=O)CN2CCN(c3cc(-c4ccccc4O)nnc3N)CC2)C(C)(C)C)cc1` here?
A: The Activity was “inactive”.

Q: What about the Activity [2] of the same molecule?
A: The Activity was “Tde”.

Q: And the Activity [3]?
A: Its Activity is “Tde”.

Q: And the Activity [4]?
A: Its Activity is “inactive”.

Q: What about the IC50 [5] of the same molecule?
A: The IC50 was 1300 nM.

Q: And the inhibition [6]?
A: Its inhibition is “inactive”.

Q: And the IC50 at 3 days [7]?
A: Its IC50 at 3 days is 24500 nM.

Q: What about the Activity [8] of the same molecule?
A: The Activity was “Tde”.

Q: And the Activity [9]?
A: Its Activity is “inactive”.

Q: And the Activity [10]?
A: The Activity was “Tde”.

Q: And the Activity [11]?
A: The Activity was “inactive”.

Q: And the Activity [12]?
A: Its Activity is under 10%.

Q: What about the Activity [13] of the same molecule?
A: The Activity was “Tde”.

Q: What about the Activity [14] of the same molecule?
A: Its Activity is “inactive”.

Q: What about the Activity [15] of the same molecule?
A: Its Activity is “Tde”.

Q: What about the Activity [16] of the same molecule?
A: Its Activity is “Active”.

Q: And the Activity [17]?
A: Its Activity is under 10%.

Q: And the inhibition [18]?
A: Its inhibition is “Active”.

Q: And the IC50 [19]?
A: The IC50 was 1400 nM.

Q: What about the Activity [20] of the same molecule?
A: The Activity was “inactive”.
